What was measured:
[1] = tested on: ovarian cancer cell line A2780; experiment: Clonogenic assay, 6 days of continuous action, A2780; assay type: cell-based, human
Method: (§1) Human cervical cancer cell line HeLa, human liver cancer cell line HepG2/7221/7402, human ovarian cancer cell line HOC8/A2780, human glioma cell line BT325, lung cancer cell line A549, brain metastatic lung cancer cell line BT72 and normal human hepatic cell line LO2 were all grown in DMEM liquid medium supplemented with 10% newborn calf serum. Human leukemia cell line Jurkat was grown in 1640 medium supplemented with 10% newborn calf serum. The above cell lines were cultured in a CO2 incubator at 5% CO2 at 37° C.
By way of example, human cervical cancer cell line HeLa, lung cancer cell line A549, and ovarian cancer cell lines A2780 and HOC8 were used to determine the killing of cancer cells by 2-bromo-isovanillin for 6 days. Specifically, four groups were formed according to the type of the cancer cells. The cancer cells were diluted as appropriate, and were respectively plated into Petri dishes with a diameter of […], the amount of the cells adjusted depending on the concentration of 2-bromo-isovanillin to be added. Once adherence was achieved, each cell type received dosages of 0, 5, 10, 15, 20, 25, 30 and 35 μmol/L in triplicates. After 6 days of continuous action, the medium was replaced by a drug-free DMEM liquid medium. […] Then the cell clones were counted. The experimental data were expressed as the mean of 2-4 experiments and were plotted as a growth curve of cancer cells.

[2] = tested on: HeLa, HepG2/7221/7402, HOC8/A2780, BT325, A549, BT72 and IB-4 cancer cell lines; experiment: Clonogenic assay, 24 hrs of continuous action, ten cancer cell lines; assay type: cell-based, human; conditions: 5, 10, 20 and 40 μmol/L
Method: as §1
By way of example, human cervical cancer cell line HeLa, human liver cancer cell lines HepG2/7221/7402, human ovarian cancer cell lines HOC8/A2780, human glioma cell line BT325, lung cancer cell line A549, brain metastatic lung cancer cell line BT72 and prostate cancer cell line IB-4 were used to determine the killing of cancer cells by 2-bromo-isovanillin for 24 hrs. Specifically, ten groups were formed according to the type of the cancer cells. The cancer cells were diluted as appropriate, and were respectively plated into Petri dishes with a diameter of […], the amount of the cells adjusted depending on the concentration of 2-bromo-isovanillin to be added. […] Then the cell clones were counted. The experimental data were expressed as the mean of […] and were plotted as a growth curve of cancer cells, as shown in FIG. 3.

[3] = tested on: human liver cancer cell line HepG2; experiment: G2/M arrest and apoptosis by flow cytometry, HepG2; assay type: cell-based; conditions: HepG2, 40 μmol/L
Method: (§2) By way of example, human liver cancer cell lines HepG2 and 7402, human ovarian cancer cell lines HOC8 and A2780, human glioma cell line BT325, lung cancer cell line A549, brain metastatic lung cancer cell line BT72 and prostate cancer cell line IB-4 were used to investigate the G2/M arresting of solid tumor cells of different tissue origins by 2-bromo-isovanillin as measured by the ratio of cells at G2/M phase. Specifically, the cancer cells were divided into two groups, and were treated with 0 or 40 μmol/L 2-bromo-isovanillin for 24 hours. Then the cells were harvested and analyzed for changes in cell cycle and cell apoptosis by flow cytometry.
2. In a separate experiment, the cell cycle profile and apoptosis rate of human liver cancer cell line HepG2 treated with 40 μmol/L 2-bromo-isovanillin for different periods of time (0-50 h) were studied, and the results are shown in FIGS. 7A and 7B (1, 2, 3, 4 respectively represent the apoptosis results for treatment with 40 μmol/L 2-bromo-isovanillin for 0, 8, 16, 24 hrs).

[4] = tested on: prostate cancer cell line IB-4; experiment: G2/M arrest by flow cytometry, IB-4; assay type: cell-based; conditions: IB-4, 40 μmol/L, 24 hrs
Method: as §2

[5] = tested on: human liver cancer cell line HepG2; experiment: Clonogenic assay, HepG2 compared with normal hepatic cells LO2; assay type: cell-based; conditions: 5-80 μmol/L, 24 hrs
Method: By way of example, human liver cancer cell line HepG2 and normal human hepatic cell line LO2 were used to study the inhibitory effect of 2-bromo-isovanillin on the growth of liver cancer cells and normal cells by clonogenic assay. Specifically, five groups were formed according to the drug concentration, and the liver cancer cells HepG2 and normal hepatic cells LO2 were respectively treated with 5, 10, 20, 40 and 80 μmol/L 2-bromo-isovanillin for 24 hrs. Then cell survival was measured by clonogenic assay (FIG. 8). In addition, the cell cycle profile and apoptotic effect were compared using flow cytometry.

[6] = tested on: spindle structure in HepG2 cells; experiment: Spindle structure by immunofluorescent labeling of tubulin, HepG2; assay type: cell-based, human; conditions: HepG2, 40 μmol/L, 24 hrs
Source text: 3. […] The influence of 2-bromo-isovanillin on the spindle structure in HepG2 cells was further studied by means of in situ immunofluorescence hybridization by immunofluorescent labeling of tubulin. […] The cells with impaired spindle function could not undergo normal division, thereby leading to rapid cell death, i.e., mitotic catastrophe.

[7] = biological target: T1, nuclear protein DNA-PKcs serine/threonine protein kinase (Homo sapiens, UniProt P78527); experiment: DNA-PKcs kinase activity in nuclear protein of treated HepG2 cells; assay type: cell-based; conditions: 24 hrs
T1 construct: adding nuclear proteins to the solid phase reaction system; endogenous in cells; host or cells: HepG2 human liver cancer cells (nuclear protein extract)
Method: The activity of nuclear protein DNA-PKcs serine/threonine protein kinase in human liver cancer cells HepG2 treated with 0, 10, 20, 40, 100 μmol/L 2-bromo-isovanillin for 24 hrs was determined by using […] DNA dependent protein kinase assay kit (Promega), according to the manufacturer's instructions, and the treatment with 100 μmol/L vanillin for the same period of time served as control. Basically, the assay was carried out by immobilizing the phosphorylation substrate specific to DNA-PKcs, i.e., a peptide derived from p53 protein onto a cellulose membrane, adding nuclear proteins to the solid phase reaction system, isotopically labeling the substrate by phosphorylation using γ-^32P ATP, removing non-specific signals after the isotope labeling, and visualizing the kinase activity upon X-ray film developing.

COc1ccc(C=O)c(Br)c1O [2-bromo-isovanillin, 2-bromo-3-hydroxy-4-methoxybenzaldehyde]
survival rate ([1]; A2780, 20 μmol/L): lower than 10%
proliferation ([1]; A2780, 30 μmol/L): completely inhibited
effect on the proliferation of all ten cancer cell lines [2]: significant inhibitory effect
treatment time after which obvious G2/M arrest began to appear [3]: 4 h
treatment time of peak G2/M arrest [3]: 8 to 16 h
cell cycle effect ([3]; 24 hrs): arrested at G2/M phase
cell apoptosis ([3]; after 8 hrs of treatment): significantly increased
cells at G0/G1 phase ([3]; at the time of G2/M arrest): significantly decreased
cell cycle effect [4]: arrested at G2/M phase
killing effect on HepG2 compared with normal hepatic cells [5]: significantly higher
M phase cells with multiple centrosomes or destroyed spindle structure [6]: more than 65%
ratio of cells at mitotic phase [6]: significantly increased
effect on DNA-PKcs kinase activity ([7]; HepG2, 20 μmol/L): significantly inhibited
inhibitory effect on DNA-PKcs kinase activity ([7]; HepG2, 40-100 μmol/L, compared with 20 μmol/L): more remarkable
